These results are taken from ChEMBL document CHEMBL1159355, “New dihydrostilbene derivatives from the leaves of Glycyrrhiza glabra and evaluation of their antioxidant activity” (J Nat Prod, 2003).

SMILES strings stand for the structures.

The nature of the assay: Antioxidant activity against linolenic acid oxidation assessed as inhibition rate constant for conjugated diene hydroperoxide formation. In kind it is functional.
For `COc1c(O)cc(CCc2cc(O)cc(O)c2)cc1CC=C(C)C`, the Activity amounted to 8 ×10⁴ /M/s. Under `CC(C)=CCc1cc(CCc2cc(O)c(CC=C(C)C)c(O)c2)cc(O)c1O` stands 11 ×10⁴ /M/s. Under `CC(C)=CCc1cc(CCc2cc(O)cc(O)c2)ccc1O` stands 6 ×10⁴ /M/s. The result for `CC(C)=CCc1cc(CCc2cc(O)c(CC=C(C)C)c(O)c2)ccc1O` reads 7 ×10⁴ /M/s; that for `CC(C)=CCc1cc(CCc2cc(O)cc(O)c2)cc(O)c1O`, 9 ×10⁴ /M/s.
